Source: patent US20220125746A1, “METHOD OF PREVENTING OR TREATING TREATMENT-INDUCED GASTROINTESTINAL INJURY” (priority 2019, published 2022)
Structures can show the parent of a compound that is named as a salt.

What was measured:
[1] = test system: colon cancer cell lines HCT 116, p53 KO, HT29, SW480, DLD1, PUMA KO; assay: CPT-induced apoptosis in colon cancer cell lines (nuclear fragmentation assay); assay type: cell-based, human; settings: CPT 500 nM 24 h, PUMAi 25 uM; p53 WT, null, mutant or PUMA null lines
Experimental: (FIG. 10A) Structure of the PUMA inhibitor lead compound (PUMAi). (FIG. 10B) Lysates of 293 cells transfected with individual plasmids for 24 hours were mixed in the indicated combinations. Lysates were incubated with vehicle or PUMA inhibitor (PUMAi, 25 μM) for 15 min before immunoprecipitation with an anti-HA antibody. The HA-bound proteins and input were analyzed by western blotting. (FIG. 10C) Lysates of 293 cells transfected with individual plasmids for 24 h were mixed in the indicated combinations. Lysates were incubated with vehicle or PUMA Inhibitor (PUMAi, 25 μM) for 15 min before immunoprecipitation with an anti-HA antibody. The HA-bound proteins and input were analyzed by western blotting. (FIG. 10D) Indicated colon cancer cell lines were treated with camptothecin (CPT, 500 nM) for 24 h. […] Apoptosis was measured by nuclear fragmentation assay. […] (FIG. 10E) Cells were treated as in D for 24 h and analyzed by western blotting. […]
After treatment, floating and adhering cells were collected and stained in a solution containing 3.7% formaldehyde, 0.5% NP-40, and Hoechst 33258 (10 ug/ml) (Molecular Probes) in PBS. Apoptosis was assessed through microscopic visualization of condensed and fragmented nuclei, as previously described (Yu J. et al., Proc Natl Acad Sci USA (2003) 100:1931-36, incorporated herein by reference). A minimum of 300 cells per treatment were analyzed in triplicate. […]

LGR5+ stem cells [2] = test system: LGR5+ stem cells
Experimental: WT and Puma KO mice carrying the Lgr5-EGFP-IRES-creERT2 marking allele were treated with CPT-11 and PUMAi over 2 weeks as in FIGS. 5A-5G and analyzed for intestinal phenotypes. (FIG. 6A) GFP (LGR5) immunofluorescence in intestinal crypts. Arrows indicate LGR5^+ (GFP) crypts. Scale bar, 100 um. (FIG. 6B) Quantitation of intestinal crypts containing at least one GFP^+ (LGR5^+) cell. (FIG. 6C) Top: Olfm4 RNA ISH in intestinal crypts. Scale bar, 50 um. Asterisks indicate Olfm4+ crypt cells. Bottom: Percentage of crypts containing at least one Olfm4+ cell. (FIG. 6D) MMP7 immunofluorescence in intestinal crypts. Scale bar, 100 um. (FIG. 6E) Quantitation of MMP7+ crypt cells at the crypt base (CBC region). (FIG. 6F) Top: GFP (LGR5) and MMP7 immunofluorescence in intestinal crypts. Scale bar, 20 um. Asterisks indicate LGR5^+/MMP7^+ cell pairs. Bottom: Quantitation of LGR5^+/MMP7^+ cell pairs per crypt. In (FIG. 6A), (FIG. 6D), and (FIG. 6F), DAPI was used to stain nuclei. In (FIG. 6B), (FIG. 6C), (FIG. 6E), and (FIG. 6F), values are means+SEM; n=3 mice. *P<0.05, **P<0.01, and ***P<0.001 (one-way ANOVA with Tukey post hoc test).
LGR5 (GFP) IF. Sections were deparaffinized and rehydrated through graded ethanols. Antigen retrieval was performed by boiling for 10 minutes in 0.1 M citrate buffer (pH 6.0) with 1 mM EDTA. Non-specific antibody binding was blocked using 20% goat serum (Invitrogen) at room temperature for 30 min. […] Sections were then washed in PBS and mounted with VectaShield+DAPI (Vector Labs).
MMP7 IF. Sections were prepared as described above. Non-specific antibody binding was blocked using 20% chicken serum (Invitrogen) at room temperature for 30 min. Sections were washed in PBS and incubated overnight at 4 °C in a humidified chamber with 1:100 diluted goat anti-MMP7 (AF2967; R&D Systems). […] Sections were then washed in PBS and mounted with VectaShield+DAPI (Vector Labs) for visualization.
LGR5(GFP)/1VIMP7 IF. Sections were prepared as described above. Non-specific antibody binding was blocked using 20% chicken serum (Invitrogen) at room temperature for 30 min. Sections were then stained for GFP as described above, followed by staining for MMP7 as described.
ISH for Olfm4 was carried out with the RNAscope 2.0 BROWN kit (Advanced Cell Diagnostics) according to the manufacturer's instructions. Briefly, tissue sections were baked for 60 min at 60 ÅåC, then deparaffinized in xylene, and rehydrated through graded ethanols. Sections then underwent three pretreatment steps, probe hybridization, six amplification steps, development, and counterstaining.

[3] = test system: colon cancer cell line DLD1; assay: PUMA-induced apoptosis inhibition in DLD1
Experimental: (§2) PUMAi was added to cells at 25 uM at the same time as CPT.

[4] = test system: colon cancer cell line HCT-116; assay: PUMA-induced apoptosis inhibition in HCT-116
Experimental: as §2

[5] = test system: primary human colonic organoids; assay: Human colonic organoids treated with CPT; assay type: cell-based; settings: PUMAi 50 uM
Experimental: (§1) Fresh mucosal scrapings from 10 cm of jejunum were washed in cold PBS, resuspended in 700 ul of RNA lysis buffer, and homogenized in a Dounce homogenizer. RNA was isolated using the Quick-RNA MiniPrep kit (Zymo Research) according to the manufacturer's instructions. Organoids were freed from Matrigel using Cell Recovery Solution (Corning), as described in, before RNA isolation. Complementary DNA was generated from 2 ug of total RNA from mice or ˜100 ng of total RNA from colonic organoids and was pooled from three mice or three wells of organoid culture per treatment group using SuperScript III reverse transcriptase (Invitrogen) and random primers. Gene expression was normalized to Gapdh. Representative results are shown, and similar results were obtained in at least three independent experiments. Details on mouse and human primers are found in Tables 1 and 2.
Surgically resected intestinal tissues were obtained from Health Science Tissue Bank (HSTB) of UPMC Shadyside Hospital and UPMC Presbyterian Hospital. All samples were obtained with informed consent and approval by the University of Pittsburgh Ethics Committee. Human normal colon crypt isolation and organoid development were performed as previously described with modifications. The complete culture medium for normal human colon organoids contains advanced DMEM/F12 (12634-010, Invitrogen) supplemented with 1× penicillin/streptomycin (15140-122, Invitrogen), 10 mM HEPES (15630-106, Invitrogen), 2 mM GlutaMAX (Invitrogen), 1× B27 (17504-044, Invitrogen), 1XN2 (17502-048, Invitrogen), 1 mM N-Acetylcysteine (A0737, Sigma), 10 nM [leu-15]-Gastrin (G9145, Sigma), 10 mM nicotinamide (N0636, Sigma), 10 μM SB202190 (S7067, Sigma), 50 ng/ml recombinant murine EGF (315-09, Peprotech), 0.5 μM A83-01 (2939, Tocris Bioscience), 10 nM PGE2 (22-961-0, Tocris Bioscience), and 50% WRN-conditioned medium (vol/vol). Freshly isolated crypts were cultured with the same medium plus 10 μM Y-27632 and 100 μg/ml Primocin. Organoids 100 p.m or greater in diameter were enumerated on day 6 after CPT treatment. […]

LGR5+ stem cells [6] = assay: LGR5+ stem cells, niche and DNA damage after CPT-11 in mice; assay type: in vivo, mouse
Experimental: LGR5(GFP)/TUNEL IF. Sections were prepared as described above. […] Sections were then washed in PBS, and TUNEL staining was performed with the ApopTag Fluorescein In Situ Apoptosis Detection Kit (Chemicon) according to the manufacturer's instructions (37, 46).
CD166 IF. Sections were prepared as described above.
p53 BP1 IF: Sections were prepared as described above. […] Sections were then incubated with AlexaFluor-594 goat anti-rabbit secondary antibodies (1:200; A11012; Invitrogen) for 1 hour at room temperature and counterstained with VectaShield plus DAPI.
as §1

intestinal crypts = assay: CPT-11-induced intestinal crypt apoptosis in mice (TUNEL, active caspase-3)
Experimental: Puma+/+ (WT) and Puma−/− (Puma KO) mice (52) were generated in-house by heterozygote breeding. WT and Puma KO alleles were genotyped from genomic DNA isolated from tail snips, as described (52). p53−/− (p53 KO) mice were purchased from the Jackson Laboratory. […] All strains are in or have been backcrossed with the C57BL/6 background for more than 10 generations (F10). Mice were housed in microisolator cages in a room illuminated from 07:00 to 19:00 hours (12:12-hour light/dark cycle), with access to water and chow ad libitum.
Rehydrated sections were treated with 3% hydrogen peroxide (immunochemistry only), followed by antigen retrieval for 10 min in boiling 0.1 M citrate buffer (pH 6.0) with 1 mM EDTA. Apoptosis was analyzed by TUNEL staining with the ApopTag Peroxidase In Situ Apoptosis Detection kit (Chemicon International) according to the manufacturer's instructions.
Active caspase 3 IHC. Sections were deparaffinized and rehydrated through graded ethanols. Rehydrated sections were then treated with 3% hydrogen peroxide, followed by antigen retrieval for 10 minutes in boiling 0.1 M citrate buffer (pH 6.0) with 1 mM EDTA. Non-specific antibody binding was blocked using 20% goat serum (Invitrogen) at room temperature for 30 minutes.

OCCN1CCN(CC(O)COc2ccc3ccccc3c2)CC1 (centres unmarked) [PUMAi, 1-[4-(2-hydroxyethyl)-1-piperazinyl]-3-(2-naphthyloxy)-2-propanol dihydrochloride]
camptothecin (CPT)-induced apoptosis in colon cancer cell lines [1]: did not reduce camptothecin (CPT)-induced apoptosis
drop in Olfm4+ crypts (RNA ISH) (LGR5+ stem cells [2]; after six doses of CPT-11): 49%
loss and mislocalization of MMP7+ cells and of MMP7+/LGR5+ contact (LGR5+ stem cells [2]; repeated CPT-11 treatment): suppressed
Apoptosis inhibition of DLD1 [3]: 39%
Apoptosis inhibition of HCT-116 [4]: 17%
CPT-induced caspase-3 activation ([5]; 24 h after CPT): inhibited CPT-induced caspase-3 activation
CPT-induced expression of WNT and NOTCH targets ([5]; 24 h after CPT): suppressed CPT-induced expression of WNT and NOTCH targets
organoid growth after CPT ([5]; CPT 500 nM 24 h, day 6): enhanced organoid growth
crypt DNA damage by 53BP1 foci (LGR5+ stem cells [6]; 6 hours after single CPT-11 dose, vs control group): comparable
crypt DNA damage by 53BP1 foci (LGR5+ stem cells [6]; 48 hours after a single dose, more so 120 hours after three doses of CPT-11): lower
decrease of CPT-11-induced apoptosis of LGR5+ cells (LGR5+ stem cells [6]; LGR5-EGFP reporter mice, CPT-11 200 mg/kg, PUMAi 10 mg/kg 2 h before): > 70%
suppression of TA marker CD44 mRNA (LGR5+ stem cells [6]; after CPT-11, intestinal mucosa): not by PUMAi
activation of WNT and NOTCH responsive genes (qRT-PCR) (LGR5+ stem cells [6]; as early as 6 hours after CPT-11): largely suppressed
CPT-11-induced expansion of CD166+ cells (LGR5+ stem cells [6]; by 96 hours): fully suppressed
crypt apoptosis, PUMAi given after CPT-11 (intestinal crypts; PUMAi 10 mg/kg 1 hour after CPT-11 200 mg/kg, 6 h): still reduced apoptosis effectively
TUNEL and active caspase-3 staining in crypts (intestinal crypts; PUMAi 10 mg/kg 2 h before CPT-11 200 mg/kg, 6 and 24 h, WT mice): reduced TUNEL and active caspase-3 staining preferentially in the CBCs
crypt apoptosis in Puma KO mice (intestinal crypts; Puma KO mice, CPT-11 200 mg/kg, 6 h): did not further reduce crypt apoptosis
